Legend:
MSTO 211H tumor = assay: Antitumor effects of PEG-modified lipoplex upon systemic administration to MSTO 211H cancer-bearing mouse; assay type: in vivo, BALB/c nu/nu male mice; details: MSTO 211H tumor-bearing mice; day 21 from beginning of administration; lipoplex 40 μg shRNA i.v. 6 times; pemetrexed 100 mg/kg i.p. 6 times
Description: BALB/c nu/nu male mice were subcutaneously inoculated with a MSTO 211H cell suspension (5×10^6 cells/100 μL). On day 14 from tumor cell inoculation, mice with tumor volumes of 50-100 mm^3 were subjected to an in vivo experiment.
The PEG-modified lipoplex prepared in Example 5 was administered via the mouse caudal vein to the MSTO 211H tumor bearing mice at a dose of 40 μg/200 μL (in terms of the shRNA amount) at 1-day intervals for 6 times in total starting on day 14 after tumor transplantation.
When the existing chemotherapeutic agent, pemetrexed sodium hydrate (Alimta (registered trademark) (Eli Lilly Japan K.K.)), was used in combination with the lipoplex, the agent was intraperitoneally administered 6 times in total (day 1, 2, 3, 8, 9 and 10) with 100 mg/kg starting on day 14 after tumor transplantation.
Carcinostatic activity was determined with tumor growth inhibition rate (TGI) (%) at day 21 from beginning of the administration. The TGI (%) was calculated in the same manner as described in the Example 6.

DLD-1/FU cells = assay: Cancer cell proliferation inhibitory effects of siRNA and shRNA, MTT, DLD-1/FU; assay type: cell-based, human; details: 5 nM siRNA/shRNA, in the presence of 5-FU 10 μg/mL
Description: (§1) In this Example, experimentation was performed on a 96-well plate scale. A lipoplex obtained as in the case of Example 2 was directly added to wells containing OptiMEM to adjust the total volume to 50 μl per well. Next, a DLD-1 or DLD-1/FU cell (human colonic intestinal adenocarcinoma cell) suspension (2,000 cells/100 μl) was added to the wells to which the lipoplex had been added (final total volume: 150 μl), followed by transfection. Here, the final concentration of shRNA or siRNA per well was 5 nM.
(§2) The medium was removed from each well 24 hours after the initiation of transfection. A fresh medium containing or not containing an existing chemotherapeutic agent, 5-FU, was added thereto (200 μl per well). Here, 5-FU was added to DLD-1 so as to result in a concentration of 0.1 μg/mL. 5-FU was added to DLD-1/FU so as to result in a concentration of 10 μg/mL. The medium was removed 0, 24, 48, 72, or 96 hours after the addition of the fresh medium. […] Also, the 0.5% MTT solution was added to cell-free wells to obtain a background absorbance.
(§3) After the completion of incubation, acidic isopropanol (150 μl) was added to each well. […] Absorbance was determined at a wavelength of 570 nm using a plate reader. Then, the cell proliferation rate was calculated. […]

DLD-1 cells = assay: Cancer cell proliferation inhibitory effects of siRNA and shRNA, MTT, DLD-1; assay type: cell-based, human; details: 5 nM siRNA/shRNA, in the presence of 5-FU 0.1 μg/mL
Description: as §1, §2, §3

[1] = system: thymidylate synthase (TS); assay: siRNA and shRNA-induced TS expression inhibition (transfection with Lf RNAi MAX, Western blotting); assay type: cell-based, human; details: 1, 5 or 10 nM, 72 hours after transfection
Description: Lipofectamine™ RNAi MAX (hereafter referred to as “Lf RNAi MAX”), which is a cationic liposome, was used as a transfection reagent.
shRNA or siRNA prepared in Example 1 and Lf RNAi MAX were separately diluted with OptiMEM. The resulting solutions were mixed at a ratio of shRNA or siRNA to Lf RNAi MAX of 100 (pmol): 5 (μL). Here, equivalent amounts of the shRNA or siRNA solution and the Lf RNAi MAX solution were used. The obtained liquid mixture was left at room temperature for 10 to 20 minutes, resulting in complex (lipoplex) formation.
Each lipoplex was directly added to a 10-cm dish containing OptiMEM to adjust the total volume to 5 ml. Next, DLD-1 or DLD-1/FU cell suspension (10 ml) was seeded on the dish (500,000 cells/dish) so as to result in a final total volume of 15 ml, followed by transfection. Here, the final concentration of shRNA or siRNA was adjusted to 1, 5, or 10 nM. After the initiation of transfection, culture was carried out in a medium at 37° C. under 5% CO2 for 72 hours. […]
For detection of TS and β-actin, overnight reaction was carried out at 4° C. using the following primary antibodies each diluted with Tween buffer: a mouse monoclonal anti-human TS antibody (1:1000) (ANASPEC, Inc., CA, USA); and a mouse monoclonal anti-human β-actin antibody (1:500) (Bio Vision, Inc., CA, USA). […] The band of each protein of interest was detected on X-ray film.

MSTO 211H cells = assay: Human plura malignant mesothelioma cell proliferation inhibitory effects of shRNA, MTT; assay type: cell-based; details: 5 or 10 nM shRNA, in the presence of pemetrexed sodium hydrate 10 ng/mL
Description: The experiment was carried out according to the method described in Example 3, except for using human plura malignant mesothelioma cell line (MSTO 211H) instead of human colorectal carcinoma cell line (DLD-1 or DLD-1/FU) and using pemetrexed sodium hydrate (Alimta (registered trademark) (Eli Lilly Japan K.K.)) instead of 5-FU as an existing chemotherapeutic agent. In the transfection, the final concentration of shRNA per well was either 5 or 10 nM. Pemetrexed sodium hydrate was added to a fresh medium at 10 ng/mL
Cell proliferation rate (%) was calculated in the same manner as described in the Example 3. FIG. 6 show the results.

Row | Compound | tumor growth inhibitory effects (TGI) (MSTO 211H tumor) | inhibition of cell proliferation (DLD-1/FU cells) | inhibition of cell proliferation (DLD-1 cells) | TS expression inhibition ([1]; DLD-1/FU cells) | TS expression inhibition ([1]; DLD-1 cells) | inhibition of cell proliferation (MSTO 211H cells)
1 | Nc1nc2[nH]cc(CCc3ccc(C(=O)N[C@@H](CCC(=O)O)C(=O)O)cc3)c2c(=O)[nH]1 [pemetrexed sodium hydrate] | approximately 28% | – | – | – | – | –
2 | shTS: shRNA targeting TS, SEQ ID NO: 8, 5′-GUAACACCAUCGAUCAUGAUAGUGCUCCUGGUUGUCAUGAUCGAUGGUGUUACUU-3′, with two-uracil 3′ overhang (short hairpin RNA, chemistry not given here, further chemistry not given here) | – | significantly inhibited proliferation | significantly inhibited proliferation | significantly inhibit TS expression | significantly inhibit TS expression | significantly inhibited proliferation

— patent publication US8592572B2, “Liposome containing shRNA molecule targeting a thymidylate synthase and use thereof” (Delta-Fly Pharma, Inc., priority 2011, dated 2013)
